{"source": "paper PMC11497264", "about": "(Chembiochem, 2024)", "target": "T1, human GRP78 (Homo sapiens, UniProt P11021)", "T1 construct": "The full length human GRP78 protein recombinantly produced in Escherichia coli; 6xHis (inferred from capture on nickel-NTA chip); purchased Abcam (Cambridge, UK); host or cells: Escherichia coli", "T1 sequence (P11021 19-654)": "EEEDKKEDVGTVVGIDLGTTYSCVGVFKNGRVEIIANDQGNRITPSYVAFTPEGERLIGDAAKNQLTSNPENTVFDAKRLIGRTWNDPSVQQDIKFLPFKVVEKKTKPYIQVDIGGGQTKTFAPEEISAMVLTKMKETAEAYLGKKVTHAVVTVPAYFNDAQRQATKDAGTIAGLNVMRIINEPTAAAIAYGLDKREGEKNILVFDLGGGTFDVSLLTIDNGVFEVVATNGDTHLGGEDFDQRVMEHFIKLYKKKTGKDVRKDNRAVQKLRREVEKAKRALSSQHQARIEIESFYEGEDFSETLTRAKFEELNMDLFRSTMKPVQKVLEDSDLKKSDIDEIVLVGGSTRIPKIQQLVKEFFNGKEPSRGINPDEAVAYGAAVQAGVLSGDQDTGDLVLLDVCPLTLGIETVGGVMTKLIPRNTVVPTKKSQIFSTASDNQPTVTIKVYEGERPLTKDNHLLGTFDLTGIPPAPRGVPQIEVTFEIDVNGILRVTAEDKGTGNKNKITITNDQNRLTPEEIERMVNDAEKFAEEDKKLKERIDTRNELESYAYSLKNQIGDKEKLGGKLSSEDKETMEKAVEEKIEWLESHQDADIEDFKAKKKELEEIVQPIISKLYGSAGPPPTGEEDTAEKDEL", "assay": "biochemical", "type": "binding", "note": "Where two headings read alike, the source gives them in different places. Bridge positions count the residues as written; N and C are the ends. Peptide text beside a SMILES is read from it."}
{"smiles": "CC(C)C[C@@H]1NC(=O)[C@H](C)NC(=O)[C@H](C(C)C)NC(=O)[C@H]([C@@H](C)O)NC(=O)[C@@H](N)CSSC[C@@H](C(N)=O)NC(=O)[C@H](C(C)C)NC(=O)[C@H](CCCNC(=N)N)NC(=O)[C@H](C(C)C)NC(=O)[C@H](Cc2ccc(O)cc2)NC(=O)CNC(=O)CNC(=O)[C@@H]2CCCN2C1=O", "note": "[Pep42, reference compound] (H-CTVALPGGYVRVC-NH2; disulfide 1-13)", "values": [{"measurement": "Kd", "setting": "affinity of binding to GRP78", "result": 3.4, "unit": "mM"}, {"measurement": "kon", "setting": "read-out: Ka1 (association rate constant 1)", "result": 160, "unit": "M⁻¹ s⁻¹"}, {"measurement": "koff", "setting": "read-out: Kd1 (dissociation rate constant 1)", "result": 0.678, "unit": "s⁻¹"}, {"measurement": "koff", "setting": "read-out: Kd2 (dissociation rate constant 2)", "result": 0.0116, "unit": "s⁻¹"}]}
